Source: publication PMC12195740, “Discovery of Novel Imidazothiazole-Based Hydroxamic Acid Derivatives as Potent Indoleamine 2,3-Dioxygenase 1 and Histone Deacetylase 6 Dual Inhibitors” (Molecules, 2025)

Experiments:
[1] = biological target: T1, HDAC6 human recombinant enzyme (Homo sapiens, UniProt Q9UBN7); experiment: HDAC6 enzyme inhibitory activity assay; format: biochemical
T1 sequence (Q9UBN7 1-1215): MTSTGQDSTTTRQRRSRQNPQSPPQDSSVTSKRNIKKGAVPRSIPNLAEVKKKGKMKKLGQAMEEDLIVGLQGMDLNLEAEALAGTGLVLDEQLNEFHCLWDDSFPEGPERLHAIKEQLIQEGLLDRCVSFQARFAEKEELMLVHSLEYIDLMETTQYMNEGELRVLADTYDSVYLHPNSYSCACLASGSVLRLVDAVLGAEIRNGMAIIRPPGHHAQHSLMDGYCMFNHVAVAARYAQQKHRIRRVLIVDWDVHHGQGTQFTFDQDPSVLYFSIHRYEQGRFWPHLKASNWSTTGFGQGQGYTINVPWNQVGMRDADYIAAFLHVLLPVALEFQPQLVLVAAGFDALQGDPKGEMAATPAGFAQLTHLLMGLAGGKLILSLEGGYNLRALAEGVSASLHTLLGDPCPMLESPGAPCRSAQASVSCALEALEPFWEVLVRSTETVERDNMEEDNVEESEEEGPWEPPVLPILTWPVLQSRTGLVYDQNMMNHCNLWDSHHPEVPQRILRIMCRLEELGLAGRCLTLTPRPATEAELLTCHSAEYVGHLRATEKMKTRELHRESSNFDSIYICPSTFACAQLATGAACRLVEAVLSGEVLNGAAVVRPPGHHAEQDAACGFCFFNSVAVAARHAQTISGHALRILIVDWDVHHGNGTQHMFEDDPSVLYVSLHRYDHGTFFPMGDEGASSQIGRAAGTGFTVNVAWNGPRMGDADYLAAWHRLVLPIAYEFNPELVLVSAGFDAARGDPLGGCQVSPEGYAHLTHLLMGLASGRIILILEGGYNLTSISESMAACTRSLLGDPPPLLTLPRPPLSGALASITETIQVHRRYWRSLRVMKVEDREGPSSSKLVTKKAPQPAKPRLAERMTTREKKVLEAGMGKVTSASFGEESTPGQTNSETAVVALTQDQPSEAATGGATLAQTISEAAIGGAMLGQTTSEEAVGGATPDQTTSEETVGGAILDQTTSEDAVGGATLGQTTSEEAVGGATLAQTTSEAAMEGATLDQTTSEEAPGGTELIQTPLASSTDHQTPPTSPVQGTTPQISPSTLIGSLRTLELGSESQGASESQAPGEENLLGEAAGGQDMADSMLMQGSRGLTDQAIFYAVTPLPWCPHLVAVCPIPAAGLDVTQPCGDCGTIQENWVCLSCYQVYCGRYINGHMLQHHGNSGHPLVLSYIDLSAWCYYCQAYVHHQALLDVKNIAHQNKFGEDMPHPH
Method: Section S1. Biological assays
Section S 1.1. HDAC6 enzyme inhibitory activity assay
Preparation of Master Mix. Trichostatin A in DMSO, Fluorogenic HDAC substrate 3, and HDAC6 human recombinant enzyme were diluted to 20 μM, 200 μM, and 7 ng/uL, respectively, using HDAC Assay Buffer.BSA was dissolved in 1 mL of distilled water to make a BSA solution at a concentration of 1 mg/mL. A certain amount of Fluorogenic HDAC substrate 3, BSA and HDAC Assay Buffer were mixed well to make a master mix, and 40 μL of the master mix was added to each well of a 96-well plate. In the drug administration group, 5 μL of Trichostatin A in DMSO and HDAC6 human recombinant enzyme were added to each well. 5 μL of HDAC Assay Buffer and HDAC6 human recombinant enzyme were added to each well of the blank group, and incubated for 30 min at 37 °C. Finally, 50 μL of undiluted HDAC substrate 3, BSA and HDAC Assay Buffer were added to each well. 50 μL of 2x HDAC Developer was added to each well and incubated at room temperature for 15 min. The samples were read in an enzyme marker with an excitation wavelength in the range of 350-380 nm and an emission light in the range of 440-460 nm.
The values of fluorescence intensities were read and the inhibition rate and IC50 were calculated. […]

MCF-7 cells = experiment: Cell viability (MTT) assay, MCF-7; settings: Homo sapiens, MCF7, 48 h, read-out: Antiproliferative IC50, MCF-7
Method: Section S 1.3 Cell viability assays
Cell Bank at the Chinese Academy of Sciences.
DMEM and FBS were obtained from Gibco-Thermo (BRL Co. Ltd., USA).
another 48 h. The cells were stained with 10 μl of MTT at incubator for approximately 4 h. The medium was discarded and replaced by 100 mL DMSO. The O.D. value was read at 570/630 nm with a spectrophotometer.

IC50 [1]: 0.0582 µM | Selectivity Index (SI) = HDAC1 IC50 value/HDAC6 IC50 value ([1]; HDAC1/HDAC6): 18.51 | inhibition at 1 µM ([1]; read-out: HDAC6 Inhibition Rate at 1 μM): 90.5% | IC50 (MCF-7 cells): 36.5 ± 5.45 µM
Compound: O=C(CCCCCCNc1ccc(NC(=O)c2cnc3scc(-c4ccc(Br)cc4)n23)cc1)NO [Compound 10e, 3-(4-Bromophenyl)-N-{4-[(7-(hydroxyamino)-7-oxoheptyl)amino]phenyl}imidazo[2,1-b]thiazole-5-carboxamide]
